According to article PMC12163485 (Drug Metabolism and Disposition, 2025):

Assays:
[1] = Pharmacokinetic parameters used for estimating the potential for DDIs; format: in vivo, human
Method: Ka was calculated manually based on available pharmacokinetic parameters.

[2] = target: T1, mouse OCT1 (Mus musculus, UniProt O08966); test: Uptake of the cocktail by HEK293 cells overexpressing mouse Oct1
T1 sequence (O08966 1-556): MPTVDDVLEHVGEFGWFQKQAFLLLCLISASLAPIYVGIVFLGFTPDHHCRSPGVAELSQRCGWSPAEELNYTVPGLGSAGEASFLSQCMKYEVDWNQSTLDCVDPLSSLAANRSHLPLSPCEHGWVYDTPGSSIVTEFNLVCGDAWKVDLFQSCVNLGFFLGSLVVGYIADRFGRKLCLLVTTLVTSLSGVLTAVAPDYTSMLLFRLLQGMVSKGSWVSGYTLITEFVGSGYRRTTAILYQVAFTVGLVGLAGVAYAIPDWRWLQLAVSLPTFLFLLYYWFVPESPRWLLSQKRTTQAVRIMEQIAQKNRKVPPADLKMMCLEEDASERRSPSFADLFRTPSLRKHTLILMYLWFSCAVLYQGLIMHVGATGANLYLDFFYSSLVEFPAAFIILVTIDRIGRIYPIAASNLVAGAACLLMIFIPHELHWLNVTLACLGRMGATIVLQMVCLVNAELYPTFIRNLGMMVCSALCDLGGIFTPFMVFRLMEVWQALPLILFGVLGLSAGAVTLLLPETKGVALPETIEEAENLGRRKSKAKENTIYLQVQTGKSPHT
Method: (§1) Significance was calculated using Mann–Whitney U test. n = 5–8 independent experiments.

[3] = system: mOct1; set-up: method as in ref column References of Table 2 (Morse et al, 2020; Jensen et al, 2020; Meyer et al, 2022); conditions: literature values; References of Table 2 (Morse et al, 2020; Jensen et al, 2020; Meyer et al, 2022); cited from earlier work
[4] = target: T2, human OCT1 (hOCT1) (Homo sapiens, UniProt O15245); set-up: expressed in transfected cells; empty vector control pcDNA5; method as in ref column References of Table 2 (Tzvetkov et al, 2018; Morse et al, 2020; Jensen et al, 2020; Meyer et al, 2019, 2022; Wittern et al, 2024 and own unpublished data; Elsby et al, 2017); conditions: literature values; References of Table 2 (Tzvetkov et al, 2018; Morse et al, 2020; Jensen et al, 2020; Meyer et al, 2019, 2022; Wittern et al, 2024 and own unpublished data; Elsby et al, 2017); cited from earlier work
T2 sequence (O15245 1-554): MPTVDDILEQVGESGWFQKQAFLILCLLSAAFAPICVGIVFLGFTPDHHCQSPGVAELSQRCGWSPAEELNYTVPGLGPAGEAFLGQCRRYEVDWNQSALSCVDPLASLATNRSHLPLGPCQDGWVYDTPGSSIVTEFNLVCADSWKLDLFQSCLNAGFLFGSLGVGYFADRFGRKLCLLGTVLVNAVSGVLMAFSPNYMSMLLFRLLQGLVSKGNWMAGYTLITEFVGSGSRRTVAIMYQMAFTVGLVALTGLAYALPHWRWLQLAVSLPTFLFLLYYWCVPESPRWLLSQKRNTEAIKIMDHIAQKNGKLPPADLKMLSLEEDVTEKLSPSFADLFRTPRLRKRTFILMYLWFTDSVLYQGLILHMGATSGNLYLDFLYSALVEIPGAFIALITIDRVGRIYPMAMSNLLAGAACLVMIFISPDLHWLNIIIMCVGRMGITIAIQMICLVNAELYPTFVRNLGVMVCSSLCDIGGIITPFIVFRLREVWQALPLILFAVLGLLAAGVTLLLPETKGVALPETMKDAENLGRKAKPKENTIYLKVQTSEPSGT

[5] = target: T3, human OCTN1 (hOCTN1) (Homo sapiens, UniProt Q9H015); test: Uptake of the extended cocktail by HEK293 cells overexpressing hOCTN1; format: in vitro ADME; conditions: Fig. 6
T3 construct: expressed in transfected cells
T3 sequence (Q9H015 1-551): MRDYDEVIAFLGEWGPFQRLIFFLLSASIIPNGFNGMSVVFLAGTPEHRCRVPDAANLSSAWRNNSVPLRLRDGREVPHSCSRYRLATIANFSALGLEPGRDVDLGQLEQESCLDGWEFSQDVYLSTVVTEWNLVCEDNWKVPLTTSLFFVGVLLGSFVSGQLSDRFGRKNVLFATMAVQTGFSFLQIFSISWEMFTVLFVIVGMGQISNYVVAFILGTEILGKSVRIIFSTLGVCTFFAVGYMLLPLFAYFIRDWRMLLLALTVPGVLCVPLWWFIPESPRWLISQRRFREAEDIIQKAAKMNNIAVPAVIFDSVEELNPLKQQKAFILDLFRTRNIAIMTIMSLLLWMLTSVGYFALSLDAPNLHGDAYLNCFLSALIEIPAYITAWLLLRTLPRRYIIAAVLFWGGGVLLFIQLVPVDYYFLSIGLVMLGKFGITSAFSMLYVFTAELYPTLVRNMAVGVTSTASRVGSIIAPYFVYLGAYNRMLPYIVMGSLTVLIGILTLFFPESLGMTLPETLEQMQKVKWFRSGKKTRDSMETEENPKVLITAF

[6] = target: T4, OCT1 (Homo sapiens, UniProt O15245); test: Uptake of the cocktail by HEK293 cells overexpressing human OCT1
T4 sequence (O15245 1-554): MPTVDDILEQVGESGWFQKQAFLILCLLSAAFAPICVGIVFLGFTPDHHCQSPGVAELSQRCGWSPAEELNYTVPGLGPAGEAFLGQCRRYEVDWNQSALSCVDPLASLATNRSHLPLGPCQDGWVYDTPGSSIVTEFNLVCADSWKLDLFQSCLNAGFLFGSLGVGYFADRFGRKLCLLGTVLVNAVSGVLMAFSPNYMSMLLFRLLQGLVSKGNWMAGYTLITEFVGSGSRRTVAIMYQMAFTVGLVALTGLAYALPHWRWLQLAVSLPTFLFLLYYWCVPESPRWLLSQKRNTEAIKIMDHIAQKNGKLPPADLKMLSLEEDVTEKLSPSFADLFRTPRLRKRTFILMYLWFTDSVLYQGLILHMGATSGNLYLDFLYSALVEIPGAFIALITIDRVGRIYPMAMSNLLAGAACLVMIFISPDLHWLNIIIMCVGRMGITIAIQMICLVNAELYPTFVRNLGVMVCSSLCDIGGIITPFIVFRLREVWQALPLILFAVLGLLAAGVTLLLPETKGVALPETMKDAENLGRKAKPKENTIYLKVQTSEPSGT
Method: as §1

[7] = system: OCT1; conditions: ref Tzvetkov et al, 2018 (fenoterol); Matthaei et al, 2016 (sumatriptan); cited from earlier work
[8] = cited from earlier work; for cmax = Imax: dose and route as in Supplemental Table 4, ref Hardman, 2018, fenoterol Tzvetkov et al; for cmax = Imax / fraction unbound: ipratropium Zhang et al, 2023; for fraction unbound: fraction unbound in plasma, ref Hardman, 2018, Lombardo et al (2018), fenoterol Tzvetkov et al; for t1/2: ref Hardman, 2018, fenoterol Tzvetkov et al
[9] = target: T4, OCT1; test: DDI risk R calculated from IC50 at human OCT1; conditions: R=1+fup×Iin,max/IC50, cutoff R ≥ 1.1
[10] = system: OCT1; conditions: read-out: inhibitory potency for metformin uptake via OCT1; substrate metformin; ref Ahlin et al, 2011; Panfen et al, 2019; cited from earlier work
[11] = substrate: CC(Cc1ccc(O)cc1)NCC(O)c1cc(O)cc(O)c1; test: cells, lysate or membranes named; conditions: mean ± SD, pH 7.4
[12] = substrate: O=C(O[C@H]1C[C@H]2CC[C@@H](C1)[N+]21CCCC1)C(O)(c1ccccc1)c1ccccc1; test: Transport kinetics (KM, vmax) of OCT1-mediated uptake, HEK293 cells overexpressing human OCT1; format: in vitro ADME; conditions: mean ± SD, pH 7.4
[13] = Iin,max=Imax+Fa×ka×D/Qh, Qh 97 L/h, Fa 1, Imax for fenoterol and ipratropium
[14] = unbound maximum inhibitor concentration at the inlet of the liver
[15] = other: hOCT1, substrate tested alone
[16] = other: hOCT1, substrate tested in cocktail

For `CC(C)[N+]1(C)[C@@H]2CC[C@H]1C[C@@H](OC(=O)C(CO)c1ccccc1)C2` (stereo partly shown) [Ipratropium, ipratropium], the “Imax, portal” value [1, 13] was 0.08 ng/mL and the “I max, portal, u” value [1, 14] was 0.0002 µM.

In the case of `CC(C)(C)NCC(O)c1ccc(O)c(CO)c1` (stereo not shown) [Salbutamol, salbutamol], the “uptake stronger in mouse than in human OCT1” value ([2]; ratio mouse/human) is listed as 4.5 fold, the Km [3] is listed as 52.2 µM and the Km [4] is listed as 310 µM.

For `C[N+](C)(C)[C@@H](Cc1c[nH]c(=S)[nH]1)C(=O)[O-]` [L-ergothioneine], the “transport by OCTN1” value [5] was “transported both L-carnitine and L-ergothioneine”.

In the case of `COc1ccc(CCN(C)CCCC(C#N)(c2ccc(OC)c(OC)c2)C(C)C)cc1OC` (stereo not shown) [Verapamil, verapamil], the “Imax, portal” value [1, 13] is reported as 3550 ng/mL and the ka ([1]; first-order absorption rate constant, calculated manually from available pharmacokinetic parameters) is reported as 2.65 h⁻¹.

For `CN(C)CCc1c[nH]c2ccc(C[C@H]3COC(=O)N3)cc12` [Zolmitriptan, zolmitriptan], the “human OCT1 uptake [fold change to pcDNA5]” value ([6]; cocktail, fold change to the negative control, n = 12) is listed as 6.6 fold change to pcDNA5, the “mouse Oct1 uptake [fold change to pcDNA5]” value ([2]; fold change to the negative control, n = 12) is listed as 7.6 fold change to pcDNA5 and the Km [4] is listed as 105 µM.

In the case of `CC(Cc1ccc(O)cc1)NCC(O)c1cc(O)cc(O)c1` (stereo not shown) [Fenoterol, fenoterol], the “transport by OCT1” value ([6]; extended cocktail, Fig. 6) is reported as “transported only by OCT1”, the “Imax, portal” value [1, 13] is reported as 1.23 ng/mL and the “I max, portal, u” value [1, 14] is reported as 0.0021 µM. For the same molecule, the “increase in systemic exposure in individuals homozygous for OCT1 loss-of-function genetic variants” value [7] was 2 fold, the “cmax = Imax” value [8] was 1.23 ng/mL and the fraction unbound [8] was 0.53. For the same molecule, the t1/2 [8] was 1.27 h, the “DDI risk R, victim drug ipratropium” value [9] was 1.00 and the “DDI risk R, victim drug metformin” value [9] was 1.00. For the same molecule, the “DDI risk R, victim drug methylnaltrexone” value [9] was 1.00, the “DDI risk R, victim drug salbutamol” value [9] was 1.00 and the “DDI risk R, victim drug sumatriptan” value [9] was 1.00. For the same molecule, the “DDI risk R, victim drug trospium” value [9] was 1.00, the “DDI risk R, victim drug zolmitriptan” value [9] was 1.00 and the Km [4] was 1.8 µM.

With `COc1cc(Cc2cnc(N)nc2N)cc(OC)c1OC` [Trimethoprim, trimethoprim] the “I max, portal, u” value ([1]; human, in vivo) was 8.53 µM, the “Imax, portal” value ([1]; human, in vivo) was 3932 ng/mL and the ka ([1]; human, in vivo) was 1.66 h⁻¹. The k el ([1]; human, in vivo, po) was 1.92e-05 s⁻¹, the IC50 [10] was […] and the “cmax = Imax” value [8] was 1200 ng/mL. The fraction unbound [8] was 0.63, the tmax ([8]; p.o., ref Hardman, 2018) was 2.00 h and the t1/2 [8] was 10.00 h.

In the case of `C[N@+]1(CC2CC2)CC[C@]23c4c5ccc(O)c4O[C@H]2C(=O)CC[C@@]3(O)[C@H]1C5` [Methylnaltrexone, methylnaltrexone], the Km [3] is listed as 8.61 µM and the Km [4] is listed as 15.2 µM.

B1: human OCT1 (hOCT1) (Homo sapiens) (protein)
chain: MPTVDDILEQVGESGWFQKQAFLILCLLSAAFAPICVGIVFLGFTPDHHCQSPGVAELSQRCGWSPAEELNYTVPGLGPAGEAFLGQCRRYEVDWNQSALSCVDPLASLATNRSHLPLGPCQDGWVYDTPGSSIVTEFNLVCADSWKLDLFQSCLNAGFLFGSLGVGYFADRFGRKLCLLGTVLVNAVSGVLMAFSPNYMSMLLFRLLQGLVSKGNWMAGYTLITEFVGSGSRRTVAIMYQMAFTVGLVALTGLAYALPHWRWLQLAVSLPTFLFLLYYWCVPESPRWLLSQKRNTEAIKIMDHIAQKNGKLPPADLKMLSLEEDVTEKLSPSFADLFRTPRLRKRTFILMYLWFTDSVLYQGLILHMGATSGNLYLDFLYSALVEIPGAFIALITIDRVGRIYPMAMSNLLAGAACLVMIFISPDLHWLNIIIMCVGRMGITIAIQMICLVNAELYPTFVRNLGVMVCSSLCDIGGIITPFIVFRLREVWQALPLILFAVLGLLAAGVTLLLPETKGVALPETMKDAENLGRKAKPKENTIYLKVQTSEPSGT
notes: expressed in transfected cells; empty vector control pcDNA5
B1 gave a Km [11, 15] of 0.94 ± 0.24 µM, a Km [11, 16] of 0.95 ± 0.38 µM and a Km [12, 15] of 16.9 ± 2.46 µM. It also gave a Vmax [12, 15] of 0.000647 µmol/min/mg, a Km [12, 16] of 13.9 ± 1.61 µM and a Vmax [12, 16] of 0.000637 µmol/min/mg.
